The structures appear in SMILES notation.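 Dose response: 5 concentrations. Exposure: 48 h. Format: 96-well plates. Endpoint: linear interpolation; highest concentration if not reached. GI50 = concentration required for 50% inhibition of growth. TGI marks complete inhibition of growth.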

Here are results for four compounds from PubChem BioAssay (NCI).

Test in all cases: NCI anticancer screen, dose series, 48 h
Experiment [1] deals with OVCAR-3 ovarian.
For experiment [2], the system named is SF-268 CNS.
Experiment [3] concerns HCT-15 colon.
Experiment [4] concerns NCI-H460 lung.
In experiment [5] the test system is MOLT-4 leukemia.
Experiment [6] deals with HT29 colon.
The test system of experiment [7] is HOP-62 NSCLC.
Experiment [8] deals with MDA-MB-435.
Experiment [9] relates to SR leukemia.
In experiment [10] the test system is OVCAR-4 ovarian.

As to `O=C1OC(=O)C(c2c[nH]c3ccccc23)=C1c1c[nH]c2ccccc12`, the GI50 in experiment [1], in experiment [2], in experiment [3], in experiment [4], in experiment [5] and in [6] was above 25 µM in each case. Besides, the GI50 in experiment [7], in experiment [8], in [9] and in experiment [10] was above 25 µM each time. Further, the TGI in experiment [1], in experiment [2], in experiment [3], in experiment [4], in experiment [5] and in experiment [6] was above 25 µM each time. Also, the TGI in experiment [7], in [8], in experiment [9] and in experiment [10] was above 25 µM each time.

As for `C[C@@H](C(=O)Nc1ccc(Cl)cc1)C1CCC(c2ccnc3ccc(F)cc23)CC1` (stereo not given in full), the GI50 is 11.9 µM in experiment [1]; 8.55 µM in experiment [2]; 8.32 µM in experiment [3]; 4.3 µM in experiment [4]; 4.16 µM in [5]; 5.81 µM in experiment [6]. Moreover, the GI50 in experiment [7] is 19.4 µM; in [8] it was 9.08 µM; in experiment [9], 2.23 µM; in [10] it was 5.93 µM. The TGI is 63.1 µM in experiment [1]; 60.9 µM in experiment [2]; above 100 µM in experiment [3]; 45.5 µM in [4]; above 100 µM in [5]; 40.4 µM in [6]. Further, the TGI is above 100 µM in experiment [7], 54.9 µM in experiment [8], 12.1 µM in experiment [9] and above 100 µM in experiment [10].

Consider `CCCCCn1c(=N)n(CC(O)COc2cccc(C)c2)c2ccccc21` (stereo not given), for which the GI50 in experiment [1] is 8 µM; in experiment [2], 10.7 µM; in experiment [3], 4.93 µM; in experiment [4], 4.62 µM; in experiment [5], 3.08 µM; in [6], 2.73 µM. The GI50 in [7] is 12 µM; in experiment [8] it was 3 µM; in experiment [9], 2.02 µM; in [10], 3.67 µM. Also, the TGI in [1] is 21.2 µM; in [2], 23.9 µM; in experiment [3], 20.3 µM; in [4], 17.3 µM; in experiment [5] it was 11.1 µM; in experiment [6] it was 11.2 µM. The TGI in experiment [7] stood at 25.6 µM; in [8] it was 11.2 µM; in [9], 5.57 µM; in [10] it was 17.6 µM.

As to `COc1cc(C2c3cc4c(cc3OC(N3CCCC3)C2C)OCO4)cc(OC)c1OC` (stereo not given), the TGI is 0.601 µM in experiment [1]; above 59.3 µM in experiment [2]; 13 µM in experiment [3]; 14.5 µM in experiment [4]; above 18.6 µM in experiment [5]; 1.22 µM in experiment [6]. Besides, the TGI in [7] is 22.5 µM; in [8], 1.84 µM; in experiment [9], above 17.1 µM; in experiment [10] it was 80.1 µM.
